Test [1] deals with T1, BTK C481S enzyme (His-TEV-hsBTK(328-659)(C481S)) (Homo sapiens, UniProt Q06187, C481S).
T1 construct: His-TEV-hsBTK(328-659)(C481S); His (N); TEV cleavage site (N)
As to the kind of experiment: Assay B: microfluidic off-chip mobility shift assay for potency against BTK C481S enzyme. In kind it is biochemical. To be noted: 90 min at 25° C. From the text: Assay B: Microfluidic Off-Chip Mobility Shift Assay Protocol for Potency Assessment Against BTK C481S Enzyme
The protocol below describes a microfluidic, off-chip mobility shift kinase assay to measure inherent potency of compounds against BTK C481S enzyme. The mechanics of the assay platform are described by the vendor (PerkinElmer, Hopkinton, Mass.) on their website at the following URL: http://caliperls.com.
Briefly, 2.5× stocks of His-TEV-hsBTK(328-659)(C481S) from the Merck Serono Protein Purification Laboratory in Darmstadt, Germany (PCS, Q27/234), 1.6×ATP and appropriate KinKDR peptide substrate (FITC-AHA-EEPLYWSFPAKKK-NH2; Tufts University Core Facility custom synthesis) were prepared in kinase reaction buffer consisting of 25 mM MgCl2, 0.015% Brij-35 (30%), 100 mM HEPES, pH 7.5, and 10 mM DTT.
5 uL of enzyme buffer and 7.5 uL of ATP/KinKDR peptide substrate mix were added to Matrix (#4315) 384-well, sterile, flat-bottom polypropylene plates (Thermo Fisher Scientific, Hudson, N.H.) with 125 nL of serially diluted compounds prepared in 100% DMSO, and incubated for 90 min. at 25° C. Following the incubation period, reactions were terminated by adding 65 uL quench buffer consisting of 100 mM HEPES, pH 7.5, 0.015% Brij-35 (30%), 0.277% Coating Reagent #3 (PerkinElmer, Mountain View, Calif.), 5% DMSO. Terminated reactions were monitored at −2 PSI, −3000 V/−700 Volts in a LabChip 3000 plate reader from Caliper Life Sciences, a PerkinElmer Company (Hopkinton, Mass.), and the activity was quantified by laser-induced fluorescence measuring the charge/mass difference between substrate and product resulting from peptide phosphorylation. IC50 and efficacy were determined by plotting log [Inhibitor] vs. % Activity in GeneData Screener (Basel, Switzerland).

The target of a further test is T2, full-length human BTK (Homo sapiens, UniProt Q06187).
T2 construct: full-length human BTK (08-080) from CarnaBio USA, Inc; purchased CarnaBio USA, Inc., Natick, Mass; 08-080
T2 sequence (Q06187 whole entry): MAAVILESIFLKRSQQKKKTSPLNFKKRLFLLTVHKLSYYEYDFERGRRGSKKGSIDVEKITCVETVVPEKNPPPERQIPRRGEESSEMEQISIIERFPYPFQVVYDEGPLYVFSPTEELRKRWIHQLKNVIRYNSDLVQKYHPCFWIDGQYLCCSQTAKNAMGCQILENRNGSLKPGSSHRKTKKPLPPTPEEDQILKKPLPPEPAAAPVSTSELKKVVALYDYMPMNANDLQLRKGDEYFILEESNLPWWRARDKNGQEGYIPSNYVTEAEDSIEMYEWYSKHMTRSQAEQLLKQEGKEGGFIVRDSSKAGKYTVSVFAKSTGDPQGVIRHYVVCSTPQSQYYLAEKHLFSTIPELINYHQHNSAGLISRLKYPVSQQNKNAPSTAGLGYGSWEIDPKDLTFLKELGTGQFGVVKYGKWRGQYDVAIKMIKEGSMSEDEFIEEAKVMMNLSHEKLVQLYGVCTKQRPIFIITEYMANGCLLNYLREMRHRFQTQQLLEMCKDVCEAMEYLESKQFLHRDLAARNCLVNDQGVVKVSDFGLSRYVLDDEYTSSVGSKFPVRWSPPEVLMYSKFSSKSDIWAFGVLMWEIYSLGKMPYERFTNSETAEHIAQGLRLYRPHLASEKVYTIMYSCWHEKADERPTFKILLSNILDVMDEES
In words: Assay A: microfluidic off-chip mobility shift assay for potency against BTK enzyme. In kind it is biochemical. To be noted: 90 min at 27° C. The text has this: Assay A: Microfluidic Off-Chip Mobility Shift Assay Protocol for Potency Assessment Against BTK Enzyme
The protocol below describes microfluidic, off-chip mobility shift kinase assay to measure inherent potency of compounds against BTK enzyme. The mechanics of the assay platform are best described by the vendor (Caliper Life Sciences, a PerkinElmer Company, Hopkinton, Mass.) on their website at the following URL:
Briefly, 2.5× stocks of full-length human BTK (08-080) from CarnaBio USA, Inc., Natick, Mass., 1.6×ATP and appropriate kinKDR peptide substrate (FITC-AHA-EEPLYWSFPAKKK-NH2; developed in-house) were prepared in kinase reaction buffer consisting of 25 mM MgCl2, 0.015% Brij-35 (30%), 100 mM Hepes, pH 7.5, and 10 mM DTT.
5 uL of enzyme buffer and 7.5 uL of ATP/kinKDR peptide substrate mix were added to Matrix (#115304) 384-well, sterile, polypropylene plates (Thermo Fisher Scientific, Hudson, N.H.) with 125 nL of serially diluted compounds prepared in 100% DMSO, and incubated for 90 min. at 27° C. following the incubation period, reactions were stopped by adding 60 uL stop buffer consisting of 100 mM Hepes, pH 7.5, 0.015% Brij-35 (30%), 0.277% Coating Reagent #3 (Caliper Life Sciences, Mountain View, Calif.), 5% DMSO. Stopped reactions were monitored at −2 PSI, −3000 V/−700 V in a LabChip 3000 plate reader from Caliper Life Sciences, a PerkinElmer Company (Hopkinton, Mass.), and the activity was measured by off-chip mobility shift assay measuring the charge/mass difference between substrate and product resulting from peptide phosphorilation. IC50 and efficacy were determined by plotting log [Inhibitor] vs. % Activity in GeneData Screener (Basel, Switzerland).

Test [2] concerns anti-IgM-induced expression of CD69 in human peripheral blood mononuclear cells (PBMCs). In words: Assay C: time dependent PMBC IC50 assay (anti-IgM-induced CD69 expression on CD19 positive cells). In kind it is cell-based. To be noted: PBMC, 1 h pre-treatment, anti-IgM overnight, CD69 on CD19 positive B cells. The text has this:
Assay C: Time Dependent PMBC IC50 Assay
Btk is critical for mediating the signalling of B cell antigen receptor (BCR) after anti-IgM stimulation. Based on this principle, a functional cell-based assay was established to determine the potency of compounds at inhibiting anti-IgM-induced expression of CD69, a downstream BCR signaling event, in freshly isolated human peripheral blood mononuclear cells (PBMCs). In the assay, a 90 al PBMC suspension containing 2.5×10^5 cells was pre-treated with 10 al of test compound at various concentrations for an hour, and then incubated overnight (approximately 16-18 hours) with 5 μl 420 μg/ml affiniPure F(ab′)2 fragment goat anti-human IgM Fc fragment per well (Dianova, Cat. No.: 109-006-129). After the incubation, the cells were washed and immunostained with an APC-labeled mouse anti-human CD69 (BD Biosciences; clone: FN50), a PerCP-Cy5.5 labelled mouse anti-human CD19 (BD Biosciences; clone: SJ25C1) and a FITC-labelled mouse anti-human CD3 (BD Biosciences; clone: HIT3a), and fixed for flow cytometric analysis of CD69 expression on CD19 positive cells (B cells). The percentage of CD69 expressing CD19 positive cells was plotted against the concentrations of test compounds to obtain a concentration response curve, and calculate an IC50 value as a measure of the potency of test compounds in the assay.

IC50 data for 16 molecules are collected here from patent publication US10045985B2, “Heteroaryl compounds as BTK inhibitors and uses thereof” (Merck Patent GmbH, priority 2015, dated 2018).

SMILES strings stand for the structures.

T1 sequence (Q06187 328-659 C481S): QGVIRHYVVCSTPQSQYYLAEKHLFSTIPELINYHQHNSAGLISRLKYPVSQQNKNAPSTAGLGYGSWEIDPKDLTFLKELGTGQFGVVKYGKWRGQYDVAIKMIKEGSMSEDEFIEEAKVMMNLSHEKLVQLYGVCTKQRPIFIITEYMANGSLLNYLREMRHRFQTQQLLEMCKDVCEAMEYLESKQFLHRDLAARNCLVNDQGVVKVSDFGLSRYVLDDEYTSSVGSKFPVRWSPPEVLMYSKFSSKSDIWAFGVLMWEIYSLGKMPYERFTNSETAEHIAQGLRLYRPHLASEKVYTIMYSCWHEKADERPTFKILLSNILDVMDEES

As a reminder, the IC50 is the midpoint of a concentration-inhibition curve. Regarding `COCCOc1ccc(Nc2ncc(F)c(NC3CCCC(NC(=O)c4ccc(C(C)(C)C)cc4)C3)n2)cc1` (racemic) [Compound 3, 4-(tert-butyl)-N-(3-((5-fluoro-2-((4-(2-methoxyethoxy)phenyl)amino)pyrimidin-4-yl)amino)cyclohexyl)benzamide], the IC50 (in test [1]; at full-length human BTK) was 0.1 to 1 µM each time.
Regarding `COCCOc1ccc(Nc2ncc(F)c(NC3CCCC(NC(=O)CNc4cccc(Cl)c4)C3)n2)cc1` (racemic) [Compound 5], the concentration for half-maximal inhibition (IC50) (in test [1]; on full-length human BTK) was 1 to 5 µM in each case.
For `COCCOc1ccc(Nc2ncc(F)c(NC3CCCC(NC(=O)c4ccc(C(C)(C)C)cc4)C3O)n2)cc1` (racemic) [Compound 16, 4-(tert-butyl)-N-(3-((5-fluoro-2-((4-(2-methoxyethoxy)phenyl)amino)pyrimidin-4-yl)amino)-2-hydroxycyclohexyl)benzamide], the results for the IC50 (in test [2]; in test [1]; on full-length human BTK) were 1 to 5 µM, below 0.1 µM and below 0.1 µM, respectively.
As to `COCCOc1ccc(Nc2ncc(F)c(N[C@@H]3CCC[C@@H](NC(=O)c4ccc(C(C)(C)C)cc4)C3)n2)cc1` (racemic) [Compound 19, 4-(tert-butyl)-N-(trans-3-((5-fluoro-2-((4-(2-methoxyethoxy)phenyl)amino)pyrimidin-4-yl)amino)cyclohexyl)benzamide], the IC50 (in test [1]; on full-length human BTK) was below 0.1 µM each time.
On to `COCCOc1ccc(Nc2ncc(F)c(NC3CCCC(NC(=O)c4cc5c(s4)CCCC5)C3O)n2)cc1` (racemic) [Compound 26], for which the IC50 (in test [1]; on full-length human BTK) was below 0.1 µM each time.
For `COCCOc1ccc(Nc2ncc(F)c(NC3CCCC(NC(=O)c4cc(C(C)(C)C)on4)C3O)n2)cc1` (racemic) [Compound 27], the IC50 (in test [1]; on full-length human BTK) was 0.1 to 1 µM throughout.
Turning to `COCCOc1ccc(Nc2ncc(F)c(N3CCC[C@@H](NC(=O)CNc4cccc(Cl)c4)C3)n2)cc1` [Compound 2, (R)-2-((3-chlorophenyl)amino)-N-(1-(5-fluoro-2-((4-(2-methoxyethoxy)phenyl)amino)pyrimidin-4-yl)piperidin-3-yl)acetamide], the IC50 (in test [1]; on full-length human BTK) was above 5 µM each time.
For the molecule `COCCOc1ccc(Nc2ncc(F)c(Nc3cccc(NC(=O)CNc4cccc(Cl)c4)c3)n2)cc1` [Compound 4, 2-((3-chlorophenyl)amino)-N-(3-((5-fluoro-2-((4-(2-methoxyethoxy)phenyl)amino)pyrimidin-4-yl)amino)phenyl)acetamide], the IC50 was 0.1 to 1 µM in test [1] and 1 to 5 µM at full-length human BTK.
As to `COCCOc1ccc(Nc2ncc(F)c(Nc3cccc(NC(=O)c4ccc(C(C)(C)C)cc4)c3)n2)cc1` [Compound 6], the concentration for half-maximal inhibition (IC50) (in test [1]; at full-length human BTK) was 1 to 5 µM each time.
Take `COCCOc1ccc(Nc2ncc(F)c(NC3CCCC(NC(=O)c4ccc(C5CC5)cc4)C3)n2)cc1` (stereo not shown) [Compound 10, 4-cyclopropyl-N-(3-((5-fluoro-2-((4-(2-methoxyethoxy)phenyl)amino)pyrimidin-4-yl)amino)cyclohexyl)benzamide]: the values for the IC50 (in test [2]; in test [1]; at full-length human BTK) were above 5 µM, 0.1 to 1 µM and 0.1 to 1 µM, respectively.
Consider `COCCOc1ccc(Nc2ncc(F)c(NC3CCCC(NC(=O)c4ccc(N(C)C)cc4)C3)n2)cc1` (stereo not shown) [Compound 11, 4-Dimethylamino-N-(3-{5-fluoro-2-[4-(2-methoxy-ethoxy)-phenylamino]-pyrimidin-4-ylamino}-cyclohexyl)-benzamide], for which the IC50 (in test [1]; on full-length human BTK) was 0.1 to 1 µM each time.
As for `COCCOc1ccc(Nc2ncc(F)c(NC3CCCC(NC(=O)c4ccc(C(C)(C)O)cc4)C3)n2)cc1` (stereo not shown) [Compound 12, N-(3-{5-Fluoro-2-[4-(2-methoxy-ethoxy)-phenylamino]-pyrimidin-4-ylamino}-cyclohexyl)0-4-(1-hydroxy-1-methyl-ethyl)-benzamide], the IC50 (in test [1]; at full-length human BTK) was 0.1 to 1 µM throughout.
As to `COCCOc1ccc(Nc2ncc(F)c(N[C@@H]3CCC[C@@H](NC(=O)c4ccc(C(C)(C)C)cc4)C3)n2)cc1` [Compound 22, 4-(tert-butyl)-N-((1R,3R)-3-((5-fluoro-2-((4-(2-methoxyethoxy)phenyl)amino)pyrimidin-4-yl)amino)cyclohexyl) benzamide], the IC50 at full-length human BTK is below 0.1 µM.
For `COCCOc1ccc(Nc2ncc(F)c(N[C@H]3CCC[C@H](NC(=O)c4ccc(C(C)(C)C)cc4)C3)n2)cc1` [Compound 23, 4-(tert-butyl)-N-((1S,3S)-3-((5-fluoro-2-((4-(2-methoxyethoxy)phenyl)amino)pyrimidin-4-yl)amino)cyclohexyl)benzamide], the IC50 at full-length human BTK was 1 to 5 µM.
Take `COCCOc1ccc(Nc2ncc(F)c(N[C@@H]3CCC[C@@H](NC(=O)c4ccc(C(C)(C)C)cc4)C3O)n2)cc1` (stereo partly shown) [Compound 24]: the IC50 (in test [1]; at full-length human BTK) was below 0.1 µM throughout.
For `COCCOc1ccc(Nc2ncc(F)c(N[C@H]3CCC[C@H](NC(=O)c4ccc(C(C)(C)C)cc4)[C@H]3O)n2)cc1` [Compound 25], the IC50 at full-length human BTK fell in the range of 1 to 5 µM.
